According to patent publication US20230135729A1, “COMPOUND WITH ANTI-SPORE ACTIVITY AND PHARMACEUTICAL COMPOSITION THEREOF” (priority 2020, published 2023):
In brackets after ≈: the same amount, converted by molar mass. Where two headings read alike, the source gives them in different places.

Columns and labels:
Type in all cases: cell-based
[1] = tested on: various C. difficile spores; test: Inhibition of germination of C. difficile spores, summary over the strains; details: Clostridioides difficile; Table 1, all strains
Description: According to a method disclosed in “The Journal of Infectious Diseases. 2013; 207: 1498-504”, spores of ATCC BBA1870, ATCC 43255 and ATCC 630 strains were obtained by culture and purification, and stored at 4° C.
Spore preparation: the C. difficile spores stored at 4° C. were heat-activated for 30 min at 65° C., centrifuged at 9,400 g for 2 min, and washed three times to remove any self-germinating spores.
Control drug: three cholic acid derivatives, a compound CamSA, a compound 20β (prepared by the method of “Journal of Medicinal Chemistry. 2017, 60 (8): 3451-3471”), and a compound 12a (prepared by the method of “Journal of Medicinal Chemistry. 2018, 61, 6759-6778”), were used as control drugs.
Compound preparation: the compound of the present disclosure, and the positive control drugs CamSA, 20β, and 12a were dissolved in DMSO, to prepare a stock solution with a concentration of 10 mM (prepared for immediate use).
The detection was conducted in a 96-well cell culture plate at a constant temperature of 37° C.; a final volume of each well of the 96-well plate was […] and a buffer was the BHIS medium; 150 μl of spores and drugs were added to the well in advance, and 50 μl of 4 mg/ml sodium taurocholate was added; OD580 was detected every 1 min immediately using a microplate reader, for continuously 60 min. A germination agent control group and a non-germination group were set up; after the detection, a final OD value of each well was compared with an initial value, and compared with the germination agent group to calculate a germination rate and an inhibition rate. A formula for the germination rate was:
Inhibition rate=100%−germination rate.

[2] = tested on: spores of ATCC 630 strain; test: Inhibition of germination of C. difficile spores (MIC), strain ATCC 630; details: Clostridioides difficile, ATCC630, 1 h, read-out: MIC (minimum concentration that completely inhibits spore germination)
Procedure, shortened: (§1)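 Germination was followed as the drop in OD580 over 60 min at 37° C in BHIS after adding sodium taurocholate to spores premixed with compound. Spores were first heat-activated (65° C, 30 min) and washed free of self-germinating spores. The inhibition rate was calculated against germinant and non-germinant controls.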

[3] = tested on: spores of ATCC BBA1870 strain; test: Inhibition of germination of C. difficile spores (MIC), strain ATCC BBA1870; details: Clostridioides difficile, ATCCBBA1870STRAIN, 1 h, read-out: MIC (minimum concentration that completely inhibits spore germination)
Procedure, shortened: as §1

[4] = tested on: spores of ATCC 43255 strain; test: Inhibition of germination of C. difficile spores (MIC), strain ATCC 43255; details: Clostridioides difficile, ATCC43255, 1 h, read-out: MIC (minimum concentration that completely inhibits spore germination)
Procedure, shortened: as §1

[5] = strain 630, sodium taurocholate as germinant, BHIS medium, 37° C., OD580 for 60 min
[6] = strain 1870, sodium taurocholate as germinant, BHIS medium, 37° C., OD580 for 60 min
[7] = strain 43255, sodium taurocholate as germinant, BHIS medium, 37° C., OD580 for 60 min

Compound | MIC [1] [µM] | MIC [2, 5] [µM] | MIC [3, 6] [µM] | MIC [4, 7] [µM] | MIC [2] [µM] | MIC [3] [µM] | MIC [4] [µM]
CC(NC(=O)C[C@@H](C)[C@H]1CC[C@H]2[C@@H]3C(=O)C[C@@H]4CC(=O)CC[C@]4(C)[C@H]3CC[C@]12C)c1ccc(Cl)s1 (stereo partly shown) [Compound I-32] | ≤ 1 | 0.5 (≈ 0.259 µg/mL) | 0.5 (≈ 0.259 µg/mL) | 0.5 (≈ 0.259 µg/mL) | – | – | –
CCC(NC(=O)C[C@@H](C)[C@H]1CC[C@H]2[C@@H]3C(=O)C[C@@H]4CC(=O)CC[C@]4(C)[C@H]3CC[C@]12C)c1cccs1 (stereo partly shown) [Compound I-35] | ≤ 1 | 0.5 (≈ 0.249 µg/mL) | 0.5 (≈ 0.249 µg/mL) | 0.5 (≈ 0.249 µg/mL) | – | – | –
CC[C@@H](NC(=O)C[C@@H](C)[C@H]1CC[C@H]2[C@@H]3C(=O)C[C@@H]4CC(=O)CC[C@]4(C)[C@H]3CC[C@]12C)c1cccs1 [Compound I-37] | ≤ 1 | 0.25 (≈ 0.124 µg/mL) | 0.25 (≈ 0.124 µg/mL) | 0.25 (≈ 0.124 µg/mL) | – | – | –
CCCC(NC(=O)C[C@@H](C)[C@H]1CC[C@H]2[C@@H]3C(=O)C[C@@H]4CC(=O)CC[C@]4(C)[C@H]3CC[C@]12C)c1cccs1 (stereo partly shown) [Compound I-41] | ≤ 1 | 0.5 (≈ 0.256 µg/mL) | 0.5 (≈ 0.256 µg/mL) | 0.5 (≈ 0.256 µg/mL) | – | – | –
C[C@H](CC(=O)NC(c1cccs1)C1CC1)[C@H]1CC[C@H]2[C@@H]3C(=O)C[C@@H]4CC(=O)CC[C@]4(C)[C@H]3CC[C@]12C (stereo partly shown) [Compound I-48] | ≤ 1 | 0.5 (≈ 0.255 µg/mL) | 0.5 (≈ 0.255 µg/mL) | 0.5 (≈ 0.255 µg/mL) | – | – | –
C[C@H](CC(=O)N[C@@H](c1cccs1)C1CC1)[C@H]1CC[C@H]2[C@@H]3C(=O)C[C@@H]4CC(=O)CC[C@]4(C)[C@H]3CC[C@]12C [Compound I-50] | ≤ 1 | 0.25 (≈ 0.127 µg/mL) | 0.25 (≈ 0.127 µg/mL) | 0.25 (≈ 0.127 µg/mL) | – | – | –
C[C@H](CC(=O)NC(c1ccc(Cl)s1)C1CC1)[C@H]1CC[C@H]2[C@@H]3C(=O)C[C@@H]4CC(=O)CC[C@]4(C)[C@H]3CC[C@]12C (stereo partly shown) [Compound I-51] | ≤ 1 | 0.5 (≈ 0.272 µg/mL) | 0.5 (≈ 0.272 µg/mL) | 0.5 (≈ 0.272 µg/mL) | – | – | –
CC(C)[C@@H](NC(=O)C[C@@H](C)[C@H]1CC[C@H]2[C@@H]3[C@H](OP(=O)(O)O)C[C@@H]4CC(=O)CC[C@]4(C)[C@H]3CC[C@]12C)c1ccc(Cl)s1 [Compound I-193] | – | 64 (≈ 40.2 µg/mL) | 64 (≈ 40.2 µg/mL) | 64 (≈ 40.2 µg/mL) | – | – | –
CC(C)[C@@H](NC(=O)C[C@@H](C)[C@H]1CC[C@H]2[C@@H]3[C@H](OP(=O)(O)O)C[C@@H]4CC(=O)CC[C@]4(C)[C@H]3CC[C@]12C)c1ccc(Br)s1 [Compound I-194] | – | 64 (≈ 43.1 µg/mL) | 64 (≈ 43.1 µg/mL) | 64 (≈ 43.1 µg/mL) | – | – | –
CC[C@@H](NC(=O)C[C@@H](C)[C@H]1CC[C@H]2[C@@H]3C(=O)C[C@@H]4CC(=O)CC[C@]4(C)[C@H]3CC[C@]12C)c1ccc(C=O)s1 [Compound I-199] | – | 16 (≈ 8.41 µg/mL) | 16 (≈ 8.41 µg/mL) | 16 (≈ 8.41 µg/mL) | – | – | –
CC(C)[C@@H](NC(=O)C[C@@H](C)[C@H]1CC[C@H]2[C@@H]3C(=O)C[C@@H]4CC(=O)CC[C@]4(C)[C@H]3CC[C@]12C)c1ccc(C=O)s1 [Compound I-200] | – | 16 (≈ 8.64 µg/mL) | 32 (≈ 17.3 µg/mL) | 32 (≈ 17.3 µg/mL) | – | – | –
CC[C@@H](NC(=O)C[C@@H](C)[C@H]1CC[C@H]2[C@@H]3C(=O)C[C@@H]4CC(=O)CC[C@]4(C)[C@H]3CC[C@]12C)c1ccc(C(C)=O)s1 [Compound I-201] | – | 32 (≈ 17.3 µg/mL) | 32 (≈ 17.3 µg/mL) | 32 (≈ 17.3 µg/mL) | – | – | –
CC(=O)c1ccc([C@H](NC(=O)C[C@@H](C)[C@H]2CC[C@H]3[C@@H]4C(=O)C[C@@H]5CC(=O)CC[C@]5(C)[C@H]4CC[C@]23C)C(C)C)s1 [Compound I-202] | – | 32 (≈ 17.7 µg/mL) | 32 (≈ 17.7 µg/mL) | 32 (≈ 17.7 µg/mL) | – | – | –
CC[C@@H](NC(=O)C[C@@H](C)[C@H]1CC[C@H]2[C@@H]3C(=O)C[C@@H]4CC(=O)CC[C@]4(C)[C@H]3CC[C@]12C)c1ccc(N(C)C)s1 [Compound I-203] | – | – | – | – | 16 (≈ 8.65 µg/mL) | 32 (≈ 17.3 µg/mL) | 32 (≈ 17.3 µg/mL)
CC(C)[C@@H](NC(=O)C[C@@H](C)[C@H]1CC[C@H]2[C@@H]3C(=O)C[C@@H]4CC(=O)CC[C@]4(C)[C@H]3CC[C@]12C)c1ccc(N(C)C)s1 [Compound I-204] | – | – | – | – | 32 (≈ 17.8 µg/mL) | 32 (≈ 17.8 µg/mL) | 32 (≈ 17.8 µg/mL)
CC[C@@H](NC(=O)C[C@@H](C)[C@H]1CC[C@H]2[C@@H]3C(=O)C[C@@H]4CC(=O)CC[C@]4(C)[C@H]3CC[C@]12C)c1ccc(C(=O)CCCCCCC(=O)O)s1 [Compound I-205] | – | 128 (≈ 83.7 µg/mL) | 128 (≈ 83.7 µg/mL) | 128 (≈ 83.7 µg/mL) | – | – | –
CC(C)[C@@H](NC(=O)C[C@@H](C)[C@H]1CC[C@H]2[C@@H]3C(=O)C[C@@H]4CC(=O)CC[C@]4(C)[C@H]3CC[C@]12C)c1ccc(C(=O)CCCCCCC(=O)O)s1 [Compound I-206] | – | 128 (≈ 85.5 µg/mL) | 256 (≈ 171 µg/mL) | 128 (≈ 85.5 µg/mL) | – | – | –
CC[C@@H](NC(=O)C[C@@H](C)[C@H]1CC[C@H]2[C@@H]3[C@H](OC(C)=O)CC4=CC(=O)CC[C@]4(C)[C@H]3CC[C@]12C)c1ccc(Br)s1 [I-155 -1] | – | 0.25 (≈ 0.155 µg/mL) | 0.25 (≈ 0.155 µg/mL) | 0.25 (≈ 0.155 µg/mL) | – | – | –
CC(=O)O[C@@H]1CC2=CC(=O)CC[C@]2(C)[C@H]2CC[C@]3(C)[C@@H]([C@H](C)CC(=O)N[C@@H](c4ccc(Br)s4)C(C)C)CC[C@H]3[C@H]12 [I-156 -1] | – | 0.5 (≈ 0.316 µg/mL) | 0.5 (≈ 0.316 µg/mL) | 0.5 (≈ 0.316 µg/mL) | – | – | –
CC[C@@H](NC(=O)C[C@@H](C)[C@H]1CC[C@H]2[C@@H]3[C@H](OC(C)=O)CC4=CC(=O)CC[C@]4(C)[C@H]3CC[C@]12C)c1ccc(Cl)s1 [I-157 -1] | – | 0.25 (≈ 0.144 µg/mL) | 0.5 (≈ 0.287 µg/mL) | 0.5 (≈ 0.287 µg/mL) | – | – | –
CC(=O)O[C@@H]1CC2=CC(=O)CC[C@]2(C)[C@H]2CC[C@]3(C)[C@@H]([C@H](C)CC(=O)N[C@@H](c4ccc(Cl)s4)C(C)C)CC[C@H]3[C@H]12 [I-158 -1] | – | 0.5 (≈ 0.294 µg/mL) | 0.5 (≈ 0.294 µg/mL) | 0.5 (≈ 0.294 µg/mL) | – | – | –
CC[C@@H](NC(=O)C[C@@H](C)[C@H]1CC[C@H]2[C@@H]3[C@H](OC(C)=O)CC4=CC(=O)C=C[C@]4(C)[C@H]3CC[C@]12C)c1ccc(Br)s1 [I-159 -1] | – | 0.5 (≈ 0.308 µg/mL) | 0.5 (≈ 0.308 µg/mL) | 0.5 (≈ 0.308 µg/mL) | – | – | –
CC(=O)O[C@@H]1CC2=CC(=O)C=C[C@]2(C)[C@H]2CC[C@]3(C)[C@@H]([C@H](C)CC(=O)N[C@@H](c4ccc(Br)s4)C(C)C)CC[C@H]3[C@H]12 [I-160 -1] | – | 0.5 (≈ 0.315 µg/mL) | 0.5 (≈ 0.315 µg/mL) | 0.5 (≈ 0.315 µg/mL) | – | – | –
CC[C@@H](NC(=O)C[C@@H](C)[C@H]1CC[C@H]2[C@@H]3[C@H](OC(C)=O)CC4=CC(=O)C=C[C@]4(C)[C@H]3CC[C@]12C)c1ccc(Cl)s1 [I-161 -1] | – | 0.25 (≈ 0.143 µg/mL) | 0.5 (≈ 0.286 µg/mL) | 0.5 (≈ 0.286 µg/mL) | – | – | –
CC(=O)O[C@@H]1CC2=CC(=O)C=C[C@]2(C)[C@H]2CC[C@]3(C)[C@@H]([C@H](C)CC(=O)N[C@@H](c4ccc(Cl)s4)C(C)C)CC[C@H]3[C@H]12 [I-162 -1] | – | 0.5 (≈ 0.293 µg/mL) | 0.25 (≈ 0.147 µg/mL) | 0.5 (≈ 0.293 µg/mL) | – | – | –
